Drawing on patent US11827628B2, “Compositions and methods for inhibition of the JAK pathway” (Rigel Pharmaceuticals, Inc., priority 2005, dated 2023), this text covers IC50 for 21 compounds.

Experiment [1] deals with IL-4 stimulated expression of CD23 in human Ramos B cells (JAK-1 and JAK-3). The experiment in a line: Assay for Ramos B-Cell Line Stimulated with IL-4 (CD23 upregulation, FACS). It is filed as cell-based. To be noted: read-out: IC50, Example 41. The method in brief:
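Read-out is surface CD23 by FACS after anti-CD23-PE staining, giving IC50. Before this, cells were stimulated 20-24 h with 50 units/mL (final) human IL-4, following 1 h compound or vehicle pre-treatment at 37 °C; log-phase Ramos B cells, 5×10^4 per well in 5% serum RPMI.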

For experiment [2], the system named is up-regulation of ICAM-1 (CD54) by IFNγ in U937 human monocytic cells. The experiment in a line: U937 IFNγ ICAM1 FACS Assay. The experiment is classed as cell-based. To be noted: ICAM-1 expression by FACS, read-out: IC50, Example 44. The procedure, abridged: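 Readout was the geometric-mean APC anti-ICAM-1 signal by FACS on live U937 monocytic cells, with % live cells also recorded. Cells were exposed to compounds (8 points, 3-fold dilutions, duplicates) for 30 min at 37 °C before 18–24 h of IFNγ stimulation. EC50 values were computed from the dose curve.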
On the technique in general: In flow cytometry, cells or beads pass a laser one at a time.

[3] abbreviates: Homo sapiens, Ramos, Ramos B-cell line stimulated with IL-4, CD23 expression by FACS.
[4] abbreviates: Homo sapiens, U-937, U937 cells stimulated with IFNγ.

The term IC50 denotes the concentration that inhibits the measured activity by half.

Read-outs that look alike come from different tables or passages of the source.

For `Cc1cnc(Nc2ccc(S(N)(=O)=O)cc2)nc1Nc1ccc(OCC(=O)N(C)C)c(F)c1` [Compound I-137, N2-(4-Aminosulfonylphenyl)-N4-(4-dimethylaminocarbonylmethoxy-3-fluorophenyl)-5-methyl-2,4-pyrimidinediamine], the results for the IC50 in experiment [1] (setting [3]) and in experiment [2] (setting [4]) were 387 nM and 29600 nM, respectively.
Consider `Cc1cnc(Nc2cccc(S(N)(=O)=O)c2)nc1Nc1ccc(OCC(=O)N(C)C)c(F)c1` [Compound I-138, N2-(3-Aminosulfonylphenyl)-N4-(4-dimethylaminocarbonylmethoxy-3-fluorophenyl)-5-methyl-2,4-pyrimidinediamine], for which the IC50 stood at 461 nM in experiment [1] (setting [3]) and 9470 nM in experiment [2] (setting [4]).
The like results for `Cc1ccc(Nc2ncc(C)c(Nc3ccc(OCC(=O)N(C)C)c(F)c3)n2)cc1S(N)(=O)=O` [Compound I-139, N2-(3-Aminosulfonyl-4-methylphenyl)-N4-(4-dimethylaminocarbonylmethoxy-3-fluorophenyl)-5-methyl-2,4-pyrimidinediamine] were, in that order, 375 nM and 3260 nM.
With `CNC(=O)COc1ccc(Nc2nc(Nc3ccc(S(N)(=O)=O)cc3)ncc2C)cc1Cl` [Compound I-149, N2-(4-Aminosulfonylphenyl)-N4-(3-chloro-4-methylaminocarbonylmethoxyphenyl)-5-methyl-2,4-pyrimidinediamine], the IC50 in experiment [1] (setting [3]) amounted to 161 nM; in experiment [2] (setting [4]), 14700 nM.
For the compound `CNC(=O)COc1ccc(Nc2nc(Nc3cccc(S(N)(=O)=O)c3)ncc2C)cc1Cl` [Compound I-150, N2-(3-Aminosulfonylphenyl)-N4-(3-chloro-4-methylaminocarbonylmethoxyphenyl)-5-methyl-2,4-pyrimidinediamine], the IC50 is 65.7 nM in experiment [1] (setting [3]) and 10500 nM in experiment [2] (setting [4]).
For `CNC(=O)COc1ccc(Nc2nc(Nc3cccc(S(N)(=O)=O)c3)ncc2C)cc1F` [Compound I-155, N2-(3-Aminosulfonylphenyl)-N4-(3-fluoro-4-methylaminocarbonylmethoxyphenyl)-5-methyl-2,4-pyrimidinediamine] the same measures were 118 nM and 65100 nM.
As for `CNC(=O)COc1ccc(Nc2nc(Nc3ccc(C)c(S(N)(=O)=O)c3)ncc2C)cc1F` [Compound I-156, N2-(3-Aminosulfonyl-4-methylphenyl)-N4-(3-fluoro-4-methylaminocarbonylmethoxyphenyl)-5-methyl-2,4-pyrimidinediamine], the IC50 amounted to 65.5 nM in experiment [1] (setting [3]) and 2620 nM in experiment [2] (setting [4]).
`C=CCNC(=O)COc1ccc(Nc2nc(Nc3cccc(S(N)(=O)=O)c3)ncc2F)cc1` [Compound I-158, N4-(4-Allylaminocarbonylmethoxyphenyl)-N2-(3-aminosulfonylphenyl)-5-fluoro-2,4-pyrimidinediamine]: the figures for the IC50 in experiment [1] (setting [3]) and in experiment [2] (setting [4]) were 297 nM and 1380 nM, respectively.
For `C=CCNC(=O)COc1ccc(Nc2nc(Nc3ccc(C)c(S(N)(=O)=O)c3)ncc2F)cc1` [Compound I-159, N4-(4-Allylaminocarbonylmethoxyphenyl)-N2-(3-aminosulfonyl-4-methylphenyl)-5-fluoro-2,4-pyrimidinediamine] the same measures were 338 nM and 1630 nM.
Consider `Cc1ccc(Nc2ncc(F)c(Nc3ccc(OCc4cccnc4)cc3)n2)cc1S(N)(=O)=O` [Compound I-178, N2-(3-Aminosulfonyl-4-methylphenyl)-5-fluoro-N4-[4-(3-pyridylmethoxy)phenyl]-2,4-pyrimidinediamine], for which the values for the IC50 in experiment [1] (setting [3]) and in experiment [2] (setting [4]) were 23.5 nM and 118 nM, respectively.
Take `Cc1ccc(Nc2nc(Nc3cccc(S(N)(=O)=O)c3)ncc2F)cc1OCCN1CCOCC1` [Compound I-203, N2-(3-Aminosulfonylphenyl)-5-fluoro-N4-[4-methyl-3-(2-morpholinoethyloxy)phenyl]-2,4-pyrimidinediamine]: the IC50 was found to be 265 nM in experiment [1] (setting [3]) and 3130 nM in experiment [2] (setting [4]).
For the compound `Cc1ccc(Nc2nc(Nc3ccc(C)c(S(N)(=O)=O)c3)ncc2F)cc1OCCN1CCOCC1` [Compound I-204, N2-(3-Aminosulfonyl-4-methylphenyl)-5-fluoro-N4-[4-methyl-3-(2-morpholinoethyloxy)phenyl]2,4-pyrimidinediamine], the IC50 in experiment [1] (setting [3]) was 256 nM; in experiment [2] (setting [4]), 3930 nM.
For `Cc1cc(COc2ccc(Nc3nc(Nc4cccc(S(N)(=O)=O)c4)ncc3F)cc2)no1` [Compound I-230, N2-(3-Aminosulfonylphenyl)-5-fluoro-N4-[4-(5-methylisoxazol-3-yl)methyleneoxyphenyl]-2,4-pyrimidinediamine] the same measures were 84.3 nM and 465 nM.
Regarding `Cc1cc(COc2ccc(Nc3nc(Nc4cccc(S(=O)(=O)NCc5oc(=O)oc5C)c4)ncc3F)cc2)no1` [Compound I-247, N2-{3-[(N-5-Methyl-1,3-dioxolene-2-one-4-yl)methylene]aminosulfonylphenyl}-5-fluoro-N4-[4-(5-methylisoxazol-3-yl)methyleneoxyphenyl]-2,4-pyrimidinediamine], the IC50 was found to be 225 nM in experiment [1] (setting [3]) and 1080 nM in experiment [2] (setting [4]).
`Cc1nnc(COc2ccc(Nc3nc(Nc4ccc(C)c(S(N)(=O)=O)c4)ncc3F)cc2)o1` [Compound I-279, N2-(3-Aminosulfonyl-4-methylphenyl)-5-fluoro-N4-[4-(5-methyl-1,3,4-oxadiazol-2-yl)methoxyphenyl]-2,4-pyrimidinediamine]: the IC50 worked out at 123 nM in experiment [1] (setting [3]) and 918 nM in experiment [2] (setting [4]).
`Cc1ccc(Nc2ncc(F)c(Nc3cnc4c(c3)OC(C)(C)C(=O)N4CC#N)n2)cc1S(N)(=O)=O` [Compound V-14, N2-(3-Aminosulfonyl-4-methylphenyl)-N4-[2,2-dimethyl-3-oxo-4-cyanomethyl-5-pyrid[1,4]oxazin-7-yl]-5-fluoro-2,4-pyrimidinediamine]: the concentration for half-maximal inhibition (IC50) in experiment [1] (Ramos B cells stimulated with IL-4, CD23 expression by FACS) is 197 nM; in experiment [2] (U937 cells stimulated with IFNγ) it was 6850 nM.
On to `Cc1cc2ccc(CNc3nc(Nc4cccc(S(N)(=O)=O)c4)ncc3F)cc2[nH]1` [Compound X-3], for which the IC50 in experiment [1] (Homo sapiens, Ramos, Ramos B cells stimulated with IL-4, CD23 expression by FACS) worked out at 348 nM; in experiment [2] (setting [4]), 1380 nM.
With `Cc1ccc(Nc2ncc(F)c(Nc3cccc(OC4CCN(C)CC4)c3)n2)cc1S(N)(=O)=O` [II-2, N2-(3-Aminosulfonyl-4-methylphenyl)-5-fluoro-N4-{3-[(1-methylpiperidin-4-yl)oxy]phenyl}-2,4-pyrimidinediamine], the IC50 in experiment [1] (setting [3]) was 244 nM; in experiment [2] (setting [4]) it was 4590 nM.
For the compound `Cc1ccc(Nc2ncc(F)c(Nc3ccc(OC4CCN(C)CC4)c(C(F)(F)F)c3)n2)cc1S(N)(=O)=O` [II-6, N2-(3-Aminosulfonyl-4-methylphenyl)-5-fluoro-N4-{4-[(1-methylpiperidin-4-yl)oxy]-3-trifluoromethylphenyl}-2,4-pyrimidinediamine], the IC50 in experiment [1] (setting [3]) came out at 111 nM; in experiment [2] (setting [4]) it was 6390 nM.
For the compound `Cc1ccc(Nc2ncc(F)c(Nc3ccc(OC4CCN(C)CC4)cc3)n2)cc1S(N)(=O)=O` [II-7, N2-(3-Aminosulfonyl-4-methylphenyl)-5-fluoro-N4-{4-[(1-methylpiperidin-4-yl)oxy]phenyl}-2,4-pyrimidinediamine], the IC50 in experiment [1] (setting [3]) is 144 nM; in experiment [2] (setting [4]), 1630 nM.
For `NS(=O)(=O)c1cccc(Nc2ncc(F)c(Nc3ccc(Oc4cccnc4)cc3)n2)c1` [II-11, N2-(3-Aminosulfonylphenyl)-5-fluoro-N4-[4-(3-pyridyloxy)phenyl]-2,4-pyrimidinediamine] the same measures were 107 nM and 912 nM.
